Reference: ChEMBL document CHEMBL6153102, “Rational Design, Synthesis, and Biological Evaluation of Novel c-Met Degraders for Lung Cancer Therapy” (J Med Chem, 2025)
pIC50: −log10 of the molar value. Activity calls are given as the source filed them. No cut-off for these calls is given here.

Experiments:
[1] = biological target: T1, Protein cereblon/Hepatocyte growth factor receptor (Homo sapiens, UniProt P08581+Q96SW2); test: PROTAC activity at c-Met/CRBN in human EBC-1 cells assessed as reduction in c-Met level at 3.9 to 125 nM incubated for 24 hrs in presence of lenalidomide by Western blot analysis; type: cell-based; settings: dose 3.9-125 nM
Target sequence in this assay (P08581 25-1390 limits assumed): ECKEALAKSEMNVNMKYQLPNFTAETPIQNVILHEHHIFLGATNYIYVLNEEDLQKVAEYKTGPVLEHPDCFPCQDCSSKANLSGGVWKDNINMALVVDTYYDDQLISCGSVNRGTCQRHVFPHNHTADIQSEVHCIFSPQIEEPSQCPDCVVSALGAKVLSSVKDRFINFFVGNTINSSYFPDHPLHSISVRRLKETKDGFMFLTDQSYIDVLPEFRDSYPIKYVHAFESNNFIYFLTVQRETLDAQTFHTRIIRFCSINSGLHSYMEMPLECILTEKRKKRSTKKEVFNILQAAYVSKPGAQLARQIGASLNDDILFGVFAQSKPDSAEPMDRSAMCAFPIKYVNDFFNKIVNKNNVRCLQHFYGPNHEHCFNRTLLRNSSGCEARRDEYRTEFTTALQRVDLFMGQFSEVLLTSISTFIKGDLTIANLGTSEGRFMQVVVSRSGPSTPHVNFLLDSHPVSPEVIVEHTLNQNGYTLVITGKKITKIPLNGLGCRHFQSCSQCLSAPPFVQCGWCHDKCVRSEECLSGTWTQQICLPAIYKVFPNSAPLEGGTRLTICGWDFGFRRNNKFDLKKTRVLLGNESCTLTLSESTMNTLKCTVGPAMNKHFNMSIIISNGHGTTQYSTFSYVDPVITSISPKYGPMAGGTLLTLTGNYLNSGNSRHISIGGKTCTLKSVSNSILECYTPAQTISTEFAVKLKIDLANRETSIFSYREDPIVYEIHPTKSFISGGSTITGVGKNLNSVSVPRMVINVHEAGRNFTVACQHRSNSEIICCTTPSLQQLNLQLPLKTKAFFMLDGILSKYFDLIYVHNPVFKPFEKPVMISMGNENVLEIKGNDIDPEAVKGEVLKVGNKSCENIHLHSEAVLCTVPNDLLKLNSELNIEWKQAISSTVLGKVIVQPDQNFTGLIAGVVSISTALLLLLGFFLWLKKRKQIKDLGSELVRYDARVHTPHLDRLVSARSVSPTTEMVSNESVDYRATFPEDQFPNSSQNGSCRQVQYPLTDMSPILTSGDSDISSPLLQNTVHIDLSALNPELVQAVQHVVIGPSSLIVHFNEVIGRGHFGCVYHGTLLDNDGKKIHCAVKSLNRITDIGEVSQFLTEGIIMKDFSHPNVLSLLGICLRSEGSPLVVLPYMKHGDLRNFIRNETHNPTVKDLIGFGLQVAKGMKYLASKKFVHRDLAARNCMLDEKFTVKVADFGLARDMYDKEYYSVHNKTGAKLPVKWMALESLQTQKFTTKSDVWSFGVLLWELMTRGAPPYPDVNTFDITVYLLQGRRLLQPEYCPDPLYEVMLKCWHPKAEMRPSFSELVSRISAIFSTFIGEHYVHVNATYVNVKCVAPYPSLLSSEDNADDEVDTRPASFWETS
Target sequence in this assay (Q96SW2 whole entry partner): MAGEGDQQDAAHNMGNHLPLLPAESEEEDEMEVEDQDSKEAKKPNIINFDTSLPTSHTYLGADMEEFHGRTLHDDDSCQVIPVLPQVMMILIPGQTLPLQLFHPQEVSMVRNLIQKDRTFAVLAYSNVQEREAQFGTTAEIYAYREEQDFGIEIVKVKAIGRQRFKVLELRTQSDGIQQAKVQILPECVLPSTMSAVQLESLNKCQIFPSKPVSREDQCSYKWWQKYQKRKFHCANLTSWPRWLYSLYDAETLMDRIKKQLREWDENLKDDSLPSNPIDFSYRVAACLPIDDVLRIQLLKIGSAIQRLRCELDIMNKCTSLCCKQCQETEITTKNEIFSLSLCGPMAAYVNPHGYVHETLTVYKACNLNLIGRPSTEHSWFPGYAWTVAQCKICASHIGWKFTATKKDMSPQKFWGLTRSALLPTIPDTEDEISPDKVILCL

[2] = biological target: T1, Protein cereblon/Hepatocyte growth factor receptor; test: PROTAC activity at c-Met/CRBN in human EBC-1 cells assessed as effect on IKZF2 level at 15.6 nM incubated for 24 hrs by proteomics analysis; type: cell-based
Target sequence in this assay (P08581 25-1390 limits assumed): as the sequence (P08581 25-1390 limits assumed) above
Target sequence in this assay (Q96SW2 whole entry partner): as the sequence (Q96SW2 whole entry partner) above

[3] = biological target: T1, Protein cereblon/Hepatocyte growth factor receptor; test: PROTAC activity at c-Met/CRBN in human EBC-1 cells assessed as reduction in IFRD1 level at 15.6 nM incubated for 24 hrs by proteomics analysis; type: cell-based
Target sequence in this assay (P08581 25-1390 limits assumed): as the sequence (P08581 25-1390 limits assumed) above
Target sequence in this assay (Q96SW2 whole entry partner): as the sequence (Q96SW2 whole entry partner) above

[4] = biological target: T1, Protein cereblon/Hepatocyte growth factor receptor; test: PROTAC activity at c-Met/CRBN in human EBC-1 cells assessed as reduction in AKR1C3 level at 15.6 nM incubated for 24 hrs by proteomics analysis; type: cell-based
Target sequence in this assay (P08581 25-1390 limits assumed): as the sequence (P08581 25-1390 limits assumed) above
Target sequence in this assay (Q96SW2 whole entry partner): as the sequence (Q96SW2 whole entry partner) above

[5] = biological target: T1, Protein cereblon/Hepatocyte growth factor receptor; test: PROTAC activity at c-Met/CRBN in human EBC-1 cells assessed as reduction in HELLS level at 15.6 nM incubated for 24 hrs by proteomics analysis; type: cell-based
Target sequence in this assay (P08581 25-1390 limits assumed): as the sequence (P08581 25-1390 limits assumed) above
Target sequence in this assay (Q96SW2 whole entry partner): as the sequence (Q96SW2 whole entry partner) above

[6] = biological target: T1, Protein cereblon/Hepatocyte growth factor receptor; test: PROTAC activity at c-Met/CRBN in human EBC-1 cells assessed as reduction in FOSL1 level at 15.6 nM incubated for 24 hrs by proteomics analysis; type: cell-based
Target sequence in this assay (P08581 25-1390 limits assumed): as the sequence (P08581 25-1390 limits assumed) above
Target sequence in this assay (Q96SW2 whole entry partner): as the sequence (Q96SW2 whole entry partner) above

[7] = biological target: T1, Protein cereblon/Hepatocyte growth factor receptor; test: PROTAC activity at c-Met/CRBN in human EBC-1 cells assessed as reduction in TFPI2 level at 15.6 nM incubated for 24 hrs by proteomics analysis; type: cell-based
[8] = biological target: T1, Protein cereblon/Hepatocyte growth factor receptor; test: PROTAC activity at c-Met/CRBN in human EBC-1 cells assessed as reduction in c-Met level at 15.6 nM incubated for 24 hrs by proteomics analysis; type: cell-based
[9] = biological target: T1, Protein cereblon/Hepatocyte growth factor receptor; test: PROTAC activity at c-Met/CRBN in human EBC-1 cells assessed as induction of c-Met degradation at 100 nM incubated for 24 hrs by Western blotting analysis relative to control; type: cell-based
[10] = biological target: T1, Protein cereblon/Hepatocyte growth factor receptor; test: PROTAC activity at c-Met/CRBN in human HCT-116 cells assessed as induction of c-Met degradation incubated for 24 hrs by Western blotting analysis; type: cell-based
Target sequence in this assay (P08581 whole entry): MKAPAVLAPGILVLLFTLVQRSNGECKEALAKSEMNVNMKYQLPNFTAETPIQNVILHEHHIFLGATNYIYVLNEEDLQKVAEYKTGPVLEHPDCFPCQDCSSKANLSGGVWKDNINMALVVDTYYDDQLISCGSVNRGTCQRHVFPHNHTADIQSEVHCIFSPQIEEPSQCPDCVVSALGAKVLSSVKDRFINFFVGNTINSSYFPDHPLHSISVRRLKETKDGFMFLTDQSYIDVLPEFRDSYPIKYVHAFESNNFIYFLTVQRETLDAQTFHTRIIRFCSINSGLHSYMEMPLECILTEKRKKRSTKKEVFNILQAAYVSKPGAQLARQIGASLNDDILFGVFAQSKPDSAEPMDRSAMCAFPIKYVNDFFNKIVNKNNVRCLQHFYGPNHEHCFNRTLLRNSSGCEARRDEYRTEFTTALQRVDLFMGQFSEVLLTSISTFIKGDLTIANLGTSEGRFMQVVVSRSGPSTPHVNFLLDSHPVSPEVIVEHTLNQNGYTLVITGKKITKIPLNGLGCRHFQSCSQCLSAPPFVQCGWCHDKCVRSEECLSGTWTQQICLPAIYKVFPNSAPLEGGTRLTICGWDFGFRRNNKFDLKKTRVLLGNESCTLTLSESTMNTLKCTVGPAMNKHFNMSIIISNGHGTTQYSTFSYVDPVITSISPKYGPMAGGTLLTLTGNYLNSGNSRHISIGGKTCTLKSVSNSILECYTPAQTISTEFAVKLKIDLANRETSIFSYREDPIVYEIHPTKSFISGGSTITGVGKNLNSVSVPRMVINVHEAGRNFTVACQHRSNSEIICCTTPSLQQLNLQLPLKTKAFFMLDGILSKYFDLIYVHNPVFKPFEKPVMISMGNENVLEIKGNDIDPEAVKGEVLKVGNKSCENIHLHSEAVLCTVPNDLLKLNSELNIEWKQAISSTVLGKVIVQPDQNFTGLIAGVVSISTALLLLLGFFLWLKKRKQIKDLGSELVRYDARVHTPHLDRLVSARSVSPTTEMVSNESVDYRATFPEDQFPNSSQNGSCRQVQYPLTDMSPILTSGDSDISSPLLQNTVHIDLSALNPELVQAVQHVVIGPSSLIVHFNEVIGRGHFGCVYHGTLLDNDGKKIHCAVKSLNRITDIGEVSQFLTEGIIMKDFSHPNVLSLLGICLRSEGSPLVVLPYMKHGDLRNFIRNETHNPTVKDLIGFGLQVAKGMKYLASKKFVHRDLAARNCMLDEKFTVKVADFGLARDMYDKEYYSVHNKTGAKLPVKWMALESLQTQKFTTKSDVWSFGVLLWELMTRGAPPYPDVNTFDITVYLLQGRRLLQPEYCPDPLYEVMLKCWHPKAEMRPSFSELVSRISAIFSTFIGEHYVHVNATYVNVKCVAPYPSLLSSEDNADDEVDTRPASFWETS
Target sequence in this assay (Q96SW2 whole entry): as the sequence (Q96SW2 whole entry partner) above

[11] = biological target: T1, Protein cereblon/Hepatocyte growth factor receptor; test: PROTAC activity at c-Met/CRBN in human A549 cells assessed as reduction in c-Met level at 3.9 to 125 nM incubated for 24 hrs in presence of tepotinib by Western blot analysis; type: cell-based; settings: dose 3.9-125 nM
[12] = biological target: T1, Protein cereblon/Hepatocyte growth factor receptor; test: PROTAC activity at c-Met/CRBN in human HCT-116 cells assessed as reduction in c-Met level at 3.9 to 125 nM incubated for 24 hrs in presence of tepotinib by Western blot analysis; type: cell-based; settings: dose 3.9-125 nM
EBC-1 [13] = test: Antiproliferative activity against human EBC-1 cells assessed as cell viability incubated for 72 hrs by MTT assay; type: functional, cell-based; settings: EBC-1, 72 h
Hs746T = test: Antiproliferative activity against human Hs746T cells assessed as cell viability incubated for 72 hrs by MTT assay; type: functional, cell-based
A549 = test: Antiproliferative activity against human A549 cells assessed as cell viability incubated for 72 hrs by MTT assay; type: functional, cell-based; settings: A549, 72 h
EBC-1 [14] = test: Induction of apoptosis in human EBC-1 cells assessed as early apoptotic cells at 5 nM incubated for 24 hrs by Annexin V/FITC staining based flow cytometry analysis (reference value: 2.11 %); type: functional
EBC-1 [15] = test: Induction of apoptosis in human EBC-1 cells assessed as late apoptotic cells at 5 nM incubated for 24 hrs by Annexin V/FITC staining based flow cytometry analysis (reference value: 1.65 %); type: functional
EBC-1 [16] = test: Induction of apoptosis in human EBC-1 cells assessed as viable cells at 50 nM incubated for 24 hrs by Annexin V/FITC staining based flow cytometry analysis (reference value: 95.9%); type: functional; settings: read-out: Activity
EBC-1 [17] = test: Induction of apoptosis in human EBC-1 cells assessed as early apoptotic cells at 50 nM incubated for 24 hrs by Annexin V/FITC staining based flow cytometry analysis (reference value: 2.11 %); type: functional
EBC-1 [18] = test: Induction of apoptosis in human EBC-1 cells assessed as late apoptotic cells at 15 nM incubated for 24 hrs by Annexin V/FITC staining based flow cytometry analysis (reference value: 1.65 %); type: functional
EBC-1 [19] = test: Induction of apoptosis in human EBC-1 cells assessed as necrotic cells at 50 nM incubated for 24 hrs by Annexin V/FITC staining based flow cytometry analysis (reference value: 0.35 %); type: functional
EBC-1 [20] = test: Induction of apoptosis in human EBC-1 cells assessed as upregulation of cleaved caspase-3 level incubated for 24 hrs by Western blot analysis; type: functional, cell-based; settings: dose 5-50 nM
[21] = Stability in human plasma assessed as half life; type: ADME, cell-free
[22] = Stability in human whole blood assessed as half life; type: ADME, tissue-based
[23] = Metabolic stability in human liver microsome assessed as clearance; type: ADME; settings: liver microsomes, read-out: CLH
[24] = Tmax in Sprague-Dawley rat at 5 mg/kg, ip measured upto 24 hrs by LC-MS/MS analysis; type: ADME, organism-based; settings: in vivo
[25] = Cmax in Sprague-Dawley rat at 2 mg/kg, iv measured upto 24 hrs by LC-MS/MS analysis; type: ADME, organism-based; settings: in vivo
[26] = Cmax in Sprague-Dawley rat at 5 mg/kg, ip measured upto 24 hrs by LC-MS/MS analysis; type: ADME, organism-based; settings: in vivo
[27] = AUC (0 to t) in Sprague-Dawley rat at 2 mg/kg, iv measured upto 24 hrs by LC-MS/MS analysis; type: ADME, organism-based; settings: in vivo
[28] = AUC (0 to infinity) in Sprague-Dawley rat at 2 mg/kg, iv measured upto 24 hrs by LC-MS/MS analysis; type: ADME, organism-based; settings: in vivo
[29] = Volume of distribution at steady state in Sprague-Dawley rat at 2 mg/kg, iv measured upto 24 hrs by LC-MS/MS analysis; type: ADME, organism-based; settings: in vivo
[30] = MRT (0 to t) in Sprague-Dawley rat at 5 mg/kg, ip measured upto 24 hrs by LC-MS/MS analysis; type: ADME, organism-based; settings: in vivo
[31] = Bioavailability in Sprague-Dawley rat at 5 mg/kg, ip measured upto 24 hrs by LC-MS/MS analysis; type: ADME, organism-based; settings: in vivo
EBC-1 [32] = test: Antitumor activity against human EBC-1 cells xenografted in ip dosed BALB/c nude mouse assessed as reduction in tumor growth administered for 7 days; type: functional, organism-based; settings: dose 10-20 mg/kg, time 7.0 day
EBC-1 [33] = test: Antitumor activity against human EBC-1 cells xenografted BALB/c nude mouse assessed as reduction in tumor volume at 10 mg/kg, ip administered for 7 days; type: functional; parameters: scale not given: the % may be the effect or the level left; settings: time 7 day
[34] = Toxicity in BALB/c nude mouse assessed as spleen damage at 10 to 20 mg/kg, ip administered for 7 days by H and E staining based analysis; type: organism-based; settings: in vivo, 168 h, dose 10-20 mg/kg, time 7 day
EBC-1 [35] = test: Antitumor activity against human EBC-1 cells xenografted BALB/c nude mouse assessed as reduction in Ki67 expression at 10 to 20 mg/kg, ip administered for 7 days by immunohistochemical analysis; type: functional, organism-based; settings: dose 10-20 mg/kg, time 7.0 day
MKN-45 = test: Antiproliferative activity against human MKN-45 cells assessed as cell viability incubated for 72 hrs by MTT assay; type: functional, cell-based; settings: MKN-45, 72 h

COc1ccc(C(=O)N2CCC3(CCN(C(=O)CN4CCC(COc5cnc(-c6cccc(Cn7nc(-c8cccc(C#N)c8)ccc7=O)c6)nc5)CC4)CC3)CC2)cc1N1CCC(=O)NC1=O
Activity [1]: Active | Activity [2]: No effect | Activity [3]: Active | Activity [4]: Active | Activity [5]: Active | Activity [6]: Active | Activity [7]: Active | Activity [8]: Active | Activity [9]: 90.3% | DC50 [10]: < 15.6 nM | Activity [11]: inactive | Activity [12]: inactive | pIC50 (EBC-1 [13]): 8.40 | pIC50 (Hs746T): 8.10 | pIC50 (A549): 4.80 | Activity (EBC-1 [14]): 29.7% | Activity (EBC-1 [15]): 3.43% | viability at 0.05 µM (EBC-1 [16]): 62% | Activity (EBC-1 [17]): 33.9% | Activity (EBC-1 [18]): 3.66% | Activity (EBC-1 [19]): 0.6% | Activity (EBC-1 [20]): Dose-dependent-effect | half-life [21]: > 2 h | half-life [22]: > 2 h | CLint scaled [23]: 57.6 mL/min/kg | Tmax [24]: 2 h | Cmax [25]: 2380 ng/mL | Cmax [26]: 104 ng/mL | AUCt [27]: 532 ng·h/mL | AUC(0-inf) [28]: 551 ng·h/mL | Vdss [29]: 36.26 L/kg | MRT last at 24 h [30]: 5.06 h | bioavailability [31]: 49.2% | Activity (EBC-1 [32]): Dose-dependent-effect | Activity (EBC-1 [33]): 86.14% | Activity [34]: Non-toxic | Activity (EBC-1 [35]): inactive | pIC50 (MKN-45): 8.00
